The values below come from patent US11161850B2, “Fused pyrazine derivatives as A2A / A2B inhibitors” (Incyte Corporation, priority 2018, dated 2021).

Molecules are shown by their SMILES. Like-named read-outs stand apart in the source and are kept apart here.

The target in one assay is Adenosine A2A (Homo sapiens (Human), UniProt P29274). Briefly: A2A Tag-Lite HTRF assay. Type of assay: binding. From the text: Example C. A2A Tag-Lite® HTRF Assay
For assay [1], the target named is human adenosine A2B receptor (Homo sapiens (Human), UniProt P29275). Briefly: Adenosine A2B Receptor Cyclic AMP GS Assay. The following applies: HEK-293 cells expressing human A2B, agonist NECA 12 nM. Type of assay: cell-based. In outline:
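Stably transfected HEK-293 cells were preincubated with compound for 30 min at room temperature, then stimulated with 12 nM NECA for 60 min. cAMP accumulation was read by FRET (665/620 ratio), and EC50 was fitted from percent of control versus log compound concentration.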

The mark [2] stands for this setting: Tag-Lite Adenosine A2A labeled cells, fluorescent ligand 12.5 nM, read-out: A2A_Ki.

Sequence of Adenosine A2A (P29274 whole entry): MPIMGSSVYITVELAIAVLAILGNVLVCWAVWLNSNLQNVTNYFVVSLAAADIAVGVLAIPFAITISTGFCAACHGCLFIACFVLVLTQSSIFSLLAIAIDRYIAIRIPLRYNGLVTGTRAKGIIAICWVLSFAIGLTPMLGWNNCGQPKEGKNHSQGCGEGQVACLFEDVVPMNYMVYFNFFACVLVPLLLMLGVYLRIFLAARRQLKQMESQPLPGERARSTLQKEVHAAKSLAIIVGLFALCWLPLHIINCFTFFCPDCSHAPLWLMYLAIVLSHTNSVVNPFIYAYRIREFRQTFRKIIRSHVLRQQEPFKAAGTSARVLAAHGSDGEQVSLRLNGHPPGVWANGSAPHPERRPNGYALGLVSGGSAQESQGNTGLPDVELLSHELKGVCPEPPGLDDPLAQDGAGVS
Sequence of human adenosine A2B receptor (P29275 whole entry): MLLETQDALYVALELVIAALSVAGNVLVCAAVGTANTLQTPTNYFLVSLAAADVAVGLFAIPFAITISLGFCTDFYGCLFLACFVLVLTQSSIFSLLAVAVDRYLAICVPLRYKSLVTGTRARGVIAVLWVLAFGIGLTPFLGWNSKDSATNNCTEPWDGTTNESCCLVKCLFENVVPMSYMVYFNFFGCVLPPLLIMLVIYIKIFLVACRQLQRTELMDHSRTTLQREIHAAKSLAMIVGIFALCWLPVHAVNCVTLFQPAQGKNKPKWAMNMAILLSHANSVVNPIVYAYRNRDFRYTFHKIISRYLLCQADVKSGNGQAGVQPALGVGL

Turning to `CCNC(=O)c1cc2c(N)nc(-c3cccc(C#N)c3)c(-c3ccc(=O)n(C)c3)n2n1` [Example 3, 4-Amino-6-(3-cyanophenyl)-N-ethyl-7-(1-methyl-6-oxo-1,6-dihydropyridin-3-yl)pyrazolo[1,5-a]pyrazine-2-carboxamide], on Adenosine A2A (setting [2]), the Ki is less than 10 nM. Also, the EC50 in assay [1] (A2B_cAMP_EC50 (nM)) is 100 to 1000 nM.

Consider `N#Cc1cccc(-c2nc(N)c3cc(Cc4ccccn4)nn3c2-c2ccncn2)c1` [Example 17, 3-(4-Amino-2-(pyridin-2-ylmethyl)-7-(pyrimidin-4-yl)pyrazolo[1,5-a]pyrazin-6-yl)benzonitrile], for which the Ki on Adenosine A2A (setting [2]) is less than 10 nM. This molecule also yielded an EC50 in assay [1] (A2B_cAMP_EC50 (nM)) of less than 10 nM.

Consider `N#Cc1cccc(-c2nc(N)c3cc(C(=O)N4CCCC4)nn3c2-c2ccncn2)c1` [Example 8, 3-(4-Amino-7-(pyrimidin-4-yl)-2-(pyrrolidine-1-carbonyl)pyrazolo[1,5-a]pyrazin-6-yl)benzonitrile], for which the Ki on Adenosine A2A (setting [2]) is less than 10 nM. For the same molecule, in assay [1] (A2B_cAMP_EC50 (nM)), the EC50 was in the range of 10 to 100 nM.

Regarding `Cn1nc(-c2c(-c3cccc(C#N)c3)nc(N)c3nc(C(N)c4c(F)cccc4F)nn23)ccc1=O` (centres unmarked) [Example 81, 3-(8-amino-2-(amino(2,6-difluorophenyl)methyl)-5-(1-methyl-6-oxo-1,6-dihydropyridazin-3-yl)-[1,2,4]triazolo[1,5-a]pyrazin-6-yl)benzonitrile], the Ki on Adenosine A2A (setting [2]) was less than 10 nM. For the same molecule, the EC50 in assay [1] (A2B_cAMP_EC50 (nM)) was less than 10 nM.

On to `N#Cc1cccc(-c2nc(N)c3cc(C(O)c4ccccc4F)nn3c2-c2ccncn2)c1` (centres unmarked) [Example 38, 3-(4-Amino-2-((2-fluorophenyl)(hydroxy)methyl)-7-(pyrimidin-4-yl)pyrazolo[1,5-a]pyrazin-6-yl)benzonitrile], for which the Ki on Adenosine A2A (setting [2]) was less than 10 nM. This molecule came in with an EC50 in assay [1] (A2B_cAMP_EC50 (nM)) of less than 10 nM.

Take `N#Cc1cccc(-c2cn3nc(Cc4c(F)cccc4-c4cnn(CC(=O)N5CC(O)C5)c4)nc3c(N)n2)c1F` [Example 118, 3-(8-amino-2-(2-fluoro-6-(1-(2-(3-hydroxyazetidin-1-yl)-2-oxoethyl)-1H-pyrazol-4-yl)benzyl)-[1,2,4]triazolo[1,5-a]pyrazin-6-yl)-2-fluorobenzonitrile]: on Adenosine A2A (setting [2]), the Ki was less than 10 nM. In assay [1] (A2B_cAMP_EC50 (nM)), this molecule came in with an EC50 of less than 10 nM.

For `Cn1cc(-c2ccccc2Cc2nc3c(N)nc(-c4cccc(C#N)c4)c(-c4ccncn4)n3n2)cn1` [Example 41, 3-(8-Amino-2-(2-(1-methyl-1H-pyrazol-4-yl)benzyl)-5-(pyrimidin-4-yl)-[1,2,4]triazolo[1,5-a]pyrazin-6-yl)benzonitrile], the Ki at Adenosine A2A (setting [2]) was less than 10 nM. This molecule also yielded an EC50 in assay [1] (A2B_cAMP_EC50 (nM)) of less than 10 nM.

As for `COc1cccc(Cc2nc3c(N)nc(-c4cccc(C#N)c4)c(-c4ccc(=O)n(C)n4)n3n2)n1` [Example 128, 3-(8-amino-2-((6-methoxypyridin-2-yl)methyl)-5-(1-methyl-6-oxo-1,6-dihydropyridazin-3-yl)-[1,2,4]triazolo[1,5-a]pyrazin-6-yl)benzonitrile], the Ki at Adenosine A2A (setting [2]) is less than 10 nM. In assay [1] (A2B_cAMP_EC50 (nM)), this molecule returned an EC50 of 10 to 100 nM.

`CCNC(=O)c1cc2c(N)nc(-c3cccc(C#N)c3)c(-c3ccncn3)n2n1` [Example 4, 4-Amino-6-(3-cyanophenyl)-N-ethyl-7-(pyrimidin-4-yl)pyrazolo[1,5-a]pyrazine-2-carboxamide]: the Ki on Adenosine A2A (setting [2]) was less than 10 nM. Further, the EC50 in assay [1] (A2B_cAMP_EC50 (nM)) was in the range of 10 to 100 nM.

Take `Cn1cnc(S(=O)(=O)N2CCCC2Cc2nc3c(N)nc(-c4cccc(C#N)c4F)cn3n2)c1` (centres unmarked) [Example 90, 3-(8-amino-2-((1-((1-methyl-1H-imidazol-4-yl)sulfonyl)pyrrolidin-2-yl)methyl)-[1,2,4]triazolo[1,5-a]pyrazin-6-yl)-2-fluorobenzonitrile]: the Ki at Adenosine A2A (setting [2]) was less than 10 nM. In addition, in assay [1] (A2B_cAMP_EC50 (nM)), the EC50 was in the range of 100 to 1000 nM.

Take `Cn1cc(Cn2cc(-c3cccc(F)c3Cc3nc4c(N)nc(-c5cccc(C#N)c5F)cn4n3)cn2)cn1` [Example 99, 3-(8-amino-2-(2-fluoro-6-(1-((1-methyl-1H-pyrazol-4-yl)methyl)-1H-pyrazol-4-yl)benzyl)-[1,2,4]triazolo[1,5-a]pyrazin-6-yl)-2-fluorobenzonitrile]: the Ki on Adenosine A2A (setting [2]) was less than 10 nM. Further, in assay [1] (A2B_cAMP_EC50 (nM)), the EC50 fell in the range of 10 to 100 nM.

Take `N#Cc1cccc(-c2nc(N)c3nc(Cc4c(F)cccc4CN4CC[C@H](C(=O)O)C4)nn3c2-c2ccncn2)c1` [Example 30, (S)-1-(2-((8-Amino-6-(3-cyanophenyl)-5-(pyrimidin-4-yl)-[1,2,4]triazolo[1,5-a]pyrazin-2-yl)methyl)-3-fluorobenzyl)pyrrolidine-3-carboxylic Acid]: at Adenosine A2A (setting [2]), the Ki is less than 10 nM. Besides, the EC50 in assay [1] (A2B_cAMP_EC50 (nM)) lay in the range of 10 to 100 nM.

With `CCNC(=O)c1cc2c(N)nc(-c3cccc(C#N)c3)c(-c3ccnn3CC)n2n1` [Example 1, 4-Amino-6-(3-cyanophenyl)-N-ethyl-7-(1-ethyl-1H-pyrazol-5-yl)pyrazolo[1,5-a]pyrazine-2-carboxamide], at Adenosine A2A (setting [2]), the Ki is less than 10 nM. Also, the EC50 in assay [1] (A2B_cAMP_EC50 (nM)) lay in the range of 10 to 100 nM.

`N#Cc1cccc(-c2nc(N)c3nc(C(O)c4c(F)cccc4CN4CCCC4)nn3c2-c2ccncn2)c1` (single isomer, unassigned) [Example 110, 3-(8-amino-2-((2-fluoro-6-(pyrrolidin-1-ylmethyl)phenyl)(hydroxy)methyl)-5-(pyrimidin-4-yl)-[1,2,4]triazolo[1,5-a]pyrazin-6-yl)benzonitrile]: at Adenosine A2A, the Ki was less than 10 nM. In assay [1] (A2B_cAMP_EC50 (nM)), this molecule showed an EC50 of 100 to 1000 nM.

Regarding `N#Cc1cccc(-c2nc(N)c3ncnn3c2-c2ccc(=O)[nH]c2)c1` [Example 15, 3-(8-Amino-5-(6-oxo-1,6-dihydropyridin-3-yl)-[1,2,4]triazolo[1,5-a]pyrazin-6-yl)benzonitrile], on Adenosine A2A (setting [2]), the Ki was less than 10 nM. Also, in assay [1] (A2B_cAMP_EC50 (nM)), the EC50 was less than 10 nM.

Regarding `N#Cc1cccc(-c2nc(N)c3nc(C(O)c4ccccc4F)nn3c2-c2ccncn2)c1` (single isomer, unassigned) [Example 55, 3-(8-Amino-2-((2-fluorophenyl)(hydroxy)methyl)-5-(pyrimidin-4-yl)-[1,2,4]triazolo[1,5-a]pyrazin-6-yl)benzonitrile], the Ki at Adenosine A2A was less than 10 nM. This molecule also displayed an EC50 in assay [1] (A2B_cAMP_EC50 (nM)) of less than 10 nM.

With `Cn1cc(-c2c(-c3cccc(C#N)c3)nc(N)c3nc(Cc4ccccn4)nn23)ccc1=O` [Example 28, 3-(8-Amino-5-(1-methyl-6-oxo-1,6-dihydropyridin-3-yl)-2-(pyridin-2-ylmethyl)-[1,2,4]triazolo[1,5-a]pyrazin-6-yl)benzonitrile], at Adenosine A2A (setting [2]), the Ki is less than 10 nM. The same molecule had an EC50 in assay [1] (A2B_cAMP_EC50 (nM)) of 10 to 100 nM.

`CCNC(=O)c1cc2c(N)nc(-c3cccc(C#N)c3)c(C3(C(F)(F)F)CC3)n2n1` [Example 6, 4-Amino-6-(3-cyanophenyl)-N-ethyl-7-(1-(trifluoromethyl)cyclopropyl)pyrazolo[1,5-a]pyrazine-2-carboxamide] gave a Ki at Adenosine A2A of 10 to 100 nM. The molecule also gave an EC50 in assay [1] (A2B_cAMP_EC50 (nM)) greater than 1000 nM.

At Adenosine A2A, `N#Cc1cccc(-c2nc(N)c3nc(C(O)c4c(F)cccc4F)nn3c2-c2ccncn2)c1` (single isomer, unassigned) [Example 49, 3-(8-Amino-2-((2,6-difluorophenyl)(hydroxy)methyl)-5-(pyrimidin-4-yl)-[1,2,4]triazolo[1,5-a]pyrazin-6-yl)benzonitrile] came in with a Ki of less than 10 nM. Moreover, in assay [1] (A2B_cAMP_EC50 (nM)), the EC50 was less than 10 nM.

For `N#Cc1cccc(-c2nc(N)c3nc(C(O)c4ccccc4Cl)nn3c2-c2ccncn2)c1` (single isomer, unassigned) [Example 58, 3-(8-Amino-2-((2-chlorophenyl)(hydroxy)methyl)-5-(pyrimidin-4-yl)-[1,2,4]triazolo[1,5-a]pyrazin-6-yl)benzonitrile], on Adenosine A2A (read-out: A2A_Ki, Tag-Lite Adenosine A2A labeled cells, fluorescent ligand 12.5 nM), the Ki was less than 10 nM. Besides, the EC50 in assay [1] (read-out: A2B_cAMP_EC50) was less than 10 nM.

As to `N#Cc1cccc(-c2nc(N)c3nc(Cc4ccccc4CN[C@H]4CCNC4=O)nn3c2-c2ccncn2)c1` [Example 75, (S)-3-(8-amino-2-(2-(((2-oxopyrrolidin-3-yl)amino)methyl)benzyl)-5-(pyrimidin-4-yl)-[1,2,4]triazolo[1,5-a]pyrazin-6-yl)benzonitrile], the Ki at Adenosine A2A (setting [2]) is less than 10 nM. The molecule also gave an EC50 in assay [1] (A2B_cAMP_EC50 (nM)) of less than 10 nM.

On to `N#Cc1cccc(-c2nc(N)c3nc(C(O)c4c(F)cccc4OC(F)F)nn3c2-c2ccncn2)c1` (single isomer, unassigned) [Example 97, 3-(8-amino-2-((2-(difluoromethoxy)-6-fluorophenyl)(hydroxy)methyl)-5-(pyrimidin-4-yl)-[1,2,4]triazolo[1,5-a]pyrazin-6-yl)benzonitrile], for which the Ki at Adenosine A2A is less than 10 nM. In addition, in assay [1] (A2B_cAMP_EC50 (nM)), the EC50 was less than 10 nM.

With `CN1CC[C@H](NCc2cccc(F)c2Cc2nc3c(N)nc(-c4cccc(C#N)c4F)cn3n2)C1=O` [Example 84, (S)-3-(8-amino-2-(2-fluoro-6-(((1-methyl-2-oxopyrrolidin-3-yl)amino)methyl)benzyl)-[1,2,4]triazolo[1,5-a]pyrazin-6-yl)-2-fluorobenzonitrile], the Ki on Adenosine A2A (setting [2]) was less than 10 nM. Further, the EC50 in assay [1] (A2B_cAMP_EC50 (nM)) was less than 10 nM.

For the molecule `N#Cc1cccc(-c2nc(N)c3nc(C(=O)N4CCC4)nn3c2-c2ccncc2F)c1` [Example 125, 3-(8-amino-2-(azetidine-1-carbonyl)-5-(3-fluoropyridin-4-yl)-[1,2,4]triazolo[1,5-a]pyrazin-6-yl)benzonitrile], the Ki on Adenosine A2A (setting [2]) is less than 10 nM. The molecule also had an EC50 in assay [1] (A2B_cAMP_EC50 (nM)) of 10 to 100 nM.

As for `N#Cc1cccc(-c2nc(N)c3nc(Cc4c(F)cccc4CNCC(N)=O)nn3c2-c2ccncn2)c1` [Example 69, 2-((2-((8-amino-6-(3-cyanophenyl)-5-(pyrimidin-4-yl)-[1,2,4]triazolo[1,5-a]pyrazin-2-yl)methyl)-3-fluorobenzyl)amino)acetamide], the Ki at Adenosine A2A (setting [2]) was less than 10 nM. Moreover, the EC50 in assay [1] (A2B_cAMP_EC50 (nM)) was less than 10 nM.
